Measured values from ChEMBL document CHEMBL4800728, “Data for DCP probe JNJ-54119936” (2021).

Legend:
[1] = target: Alpha-2B adrenergic receptor (Homo sapiens, UniProt P18089); assay: GPCRScan assay: inhibition of Alpha2B; set-up: radioligand conc. used [nm] 1.5 – 2.0, parental cells HEKT
[2] = target: Nuclear receptor ROR-alpha (Homo sapiens) (UniProt P35398); assay: ThermoFluor Binding Assay (RORA)
[3] = target: Aurora kinase B (Homo sapiens) (UniProt Q96GD4); assay: Aurora_B Invitrogen kinase panel; settings: Compound concentration 10.0 uM
[4] = target: Tyrosine-protein kinase Blk (Homo sapiens) (UniProt P51451); assay: Blk Invitrogen kinase panel; settings: Compound concentration 10.0 uM
[5] = target: Calcium/calmodulin-dependent protein kinase type II subunit beta (Homo sapiens) (UniProt Q13554); assay: CaMKIIbeta Invitrogen kinase panel; settings: Compound concentration 10.0 uM
Sequence of Calcium/calmodulin-dependent protein kinase type II subunit beta (Homo sapiens) (Q13554 whole entry): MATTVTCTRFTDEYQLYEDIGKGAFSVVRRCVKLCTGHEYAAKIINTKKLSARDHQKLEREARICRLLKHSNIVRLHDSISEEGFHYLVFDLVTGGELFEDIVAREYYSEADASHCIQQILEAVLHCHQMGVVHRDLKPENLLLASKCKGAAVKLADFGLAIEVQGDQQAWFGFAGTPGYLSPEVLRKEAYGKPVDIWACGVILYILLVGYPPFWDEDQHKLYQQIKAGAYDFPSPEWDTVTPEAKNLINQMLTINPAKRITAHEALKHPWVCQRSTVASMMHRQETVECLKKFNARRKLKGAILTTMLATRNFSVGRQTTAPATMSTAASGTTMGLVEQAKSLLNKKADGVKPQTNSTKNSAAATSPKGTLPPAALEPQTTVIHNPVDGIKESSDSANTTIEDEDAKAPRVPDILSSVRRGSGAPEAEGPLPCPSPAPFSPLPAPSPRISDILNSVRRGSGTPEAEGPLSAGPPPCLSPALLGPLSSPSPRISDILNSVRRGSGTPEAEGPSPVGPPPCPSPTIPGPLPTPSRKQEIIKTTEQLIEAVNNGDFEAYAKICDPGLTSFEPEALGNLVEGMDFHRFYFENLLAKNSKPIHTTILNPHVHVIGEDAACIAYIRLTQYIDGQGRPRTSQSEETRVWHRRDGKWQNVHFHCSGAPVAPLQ

[6] = target: Serine/threonine-protein kinase Chk2 (Homo sapiens) (UniProt O96017); assay: CHK2 Invitrogen kinase panel; settings: Compound concentration 10.0 uM
[7] = target: Dual specificity protein kinase CLK2 (Homo sapiens) (UniProt P49760); assay: CLK2 Invitrogen kinase panel; settings: Compound concentration 10.0 uM
[8] = target: Insulin-like growth factor 1 receptor (Homo sapiens) (UniProt P08069); assay: IGF-1R Invitrogen kinase panel; settings: Compound concentration 10.0 uM
[9] = target: Tyrosine-protein kinase JAK2 (Homo sapiens) (UniProt O60674); assay: JAK2 Invitrogen kinase panel; settings: Compound concentration 10.0 uM
[10] = target: Mitogen-activated protein kinase 12 (Homo sapiens) (UniProt P53778); assay: p38gamma Invitrogen kinase panel; settings: Compound concentration 10.0 uM
Sequence of Mitogen-activated protein kinase 12 (Homo sapiens) (P53778 whole entry): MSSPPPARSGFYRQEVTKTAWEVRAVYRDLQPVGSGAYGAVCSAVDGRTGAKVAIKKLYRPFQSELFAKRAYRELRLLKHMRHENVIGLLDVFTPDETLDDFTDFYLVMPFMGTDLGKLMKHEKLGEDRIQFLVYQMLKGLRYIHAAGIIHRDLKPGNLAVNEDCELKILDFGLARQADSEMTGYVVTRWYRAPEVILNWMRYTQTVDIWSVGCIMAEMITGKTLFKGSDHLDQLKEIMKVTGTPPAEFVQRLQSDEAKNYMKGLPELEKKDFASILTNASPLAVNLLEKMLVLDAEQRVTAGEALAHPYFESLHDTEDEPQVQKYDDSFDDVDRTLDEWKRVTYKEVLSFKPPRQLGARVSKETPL

[11] = target: Mitogen-activated protein kinase 13 (Homo sapiens) (UniProt O15264); assay: p38delta Invitrogen kinase panel; settings: Compound concentration 10.0 uM
Sequence of Mitogen-activated protein kinase 13 (Homo sapiens) (O15264 whole entry): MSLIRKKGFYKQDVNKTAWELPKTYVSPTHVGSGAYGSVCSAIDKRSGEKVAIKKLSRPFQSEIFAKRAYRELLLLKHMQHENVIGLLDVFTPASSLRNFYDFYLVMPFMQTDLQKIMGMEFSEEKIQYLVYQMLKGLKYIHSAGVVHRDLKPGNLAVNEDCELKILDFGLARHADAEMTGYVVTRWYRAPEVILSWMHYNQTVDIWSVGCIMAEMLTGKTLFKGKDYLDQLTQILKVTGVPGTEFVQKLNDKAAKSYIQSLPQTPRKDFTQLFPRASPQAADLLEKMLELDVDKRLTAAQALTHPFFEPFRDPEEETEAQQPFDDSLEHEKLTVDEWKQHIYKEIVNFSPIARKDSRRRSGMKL

[12] = target: Serine/threonine-protein kinase PLK3 (Homo sapiens) (UniProt Q9H4B4); assay: Plk3 Invitrogen kinase panel; settings: Compound concentration 10.0 uM
[13] = target: Protein kinase C alpha type (Homo sapiens) (UniProt P17252); assay: PKCalpha Invitrogen kinase panel; settings: Compound concentration 10.0 uM
[14] = target: Oxysterols receptor LXR-alpha (Homo sapiens) (UniProt Q13133); assay: (§1) LXRalpha In-house nuclear receptor screen; settings: Compound concentration 3.0 uM
[15] = target: Oxysterols receptor LXR-alpha (Homo sapiens, UniProt Q13133); assay: as §1
[16] = target: Estrogen receptor beta (Homo sapiens) (UniProt Q92731); assay: ERbeta In-house nuclear receptor screen; settings: Compound concentration 3.0 uM
[17] = target: Adenosine receptor A3 (Homo sapiens) (UniProt P0DMS8); assay: A3 (h) CEREP screen
Sequence of Adenosine receptor A3 (Homo sapiens) (P0DMS8 whole entry): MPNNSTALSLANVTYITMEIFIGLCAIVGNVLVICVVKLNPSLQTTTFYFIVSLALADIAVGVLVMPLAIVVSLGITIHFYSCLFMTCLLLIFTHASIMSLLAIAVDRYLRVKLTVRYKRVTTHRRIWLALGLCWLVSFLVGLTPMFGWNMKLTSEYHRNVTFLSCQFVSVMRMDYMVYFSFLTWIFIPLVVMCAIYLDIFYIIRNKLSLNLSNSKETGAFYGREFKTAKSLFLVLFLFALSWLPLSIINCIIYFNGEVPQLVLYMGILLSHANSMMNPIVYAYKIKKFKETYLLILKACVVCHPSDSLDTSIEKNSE

[18] = target: T1, Muscarinic acetylcholine receptor M1 (Homo sapiens) (UniProt P11229); assay: M1 (h) CEREP screen
T1 sequence (whole entry): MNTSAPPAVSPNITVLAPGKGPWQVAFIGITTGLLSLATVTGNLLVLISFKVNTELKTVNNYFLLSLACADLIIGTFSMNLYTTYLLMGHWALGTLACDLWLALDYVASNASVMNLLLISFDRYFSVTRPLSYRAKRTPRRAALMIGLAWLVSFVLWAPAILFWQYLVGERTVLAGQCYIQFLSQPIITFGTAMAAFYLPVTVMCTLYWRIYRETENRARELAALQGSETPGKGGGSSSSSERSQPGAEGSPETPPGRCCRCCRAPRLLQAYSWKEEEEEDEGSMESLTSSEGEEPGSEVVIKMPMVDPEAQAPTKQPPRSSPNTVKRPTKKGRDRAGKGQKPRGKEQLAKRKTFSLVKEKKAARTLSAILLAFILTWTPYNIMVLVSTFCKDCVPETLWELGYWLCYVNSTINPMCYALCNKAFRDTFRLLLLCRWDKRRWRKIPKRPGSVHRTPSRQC

[19] = target: Kappa-type opioid receptor (Homo sapiens) (UniProt P41145); assay: Kappa (KOP) (h) CEREP screen; settings: Compound concentration 10.0 uM
Sequence of Kappa-type opioid receptor (Homo sapiens) (P41145 whole entry): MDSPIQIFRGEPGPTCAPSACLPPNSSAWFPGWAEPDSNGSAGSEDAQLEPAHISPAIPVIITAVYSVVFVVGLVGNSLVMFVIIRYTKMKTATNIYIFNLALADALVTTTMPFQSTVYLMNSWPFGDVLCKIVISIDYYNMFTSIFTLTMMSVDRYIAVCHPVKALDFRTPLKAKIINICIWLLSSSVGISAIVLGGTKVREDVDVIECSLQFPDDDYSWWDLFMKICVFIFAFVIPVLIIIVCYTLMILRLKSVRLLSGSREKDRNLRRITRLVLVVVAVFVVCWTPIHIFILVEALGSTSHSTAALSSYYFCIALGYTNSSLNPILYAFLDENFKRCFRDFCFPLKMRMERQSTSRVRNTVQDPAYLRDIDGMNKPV

[20] = target: Serotonin 3 (5-HT3) receptor (Homo sapiens) (UniProt P46098+A5X5Y0+O95264+Q70Z44+Q8WXA8); assay: 5-HT3 (h) CEREP screen; type: protein-complex assay; settings: Compound concentration 10.0 uM
[21] = target: 5-hydroxytryptamine receptor 6 (Homo sapiens) (UniProt P50406); assay: 5-HT6 (h) CEREP screen
Sequence of 5-hydroxytryptamine receptor 6 (Homo sapiens) (P50406 whole entry): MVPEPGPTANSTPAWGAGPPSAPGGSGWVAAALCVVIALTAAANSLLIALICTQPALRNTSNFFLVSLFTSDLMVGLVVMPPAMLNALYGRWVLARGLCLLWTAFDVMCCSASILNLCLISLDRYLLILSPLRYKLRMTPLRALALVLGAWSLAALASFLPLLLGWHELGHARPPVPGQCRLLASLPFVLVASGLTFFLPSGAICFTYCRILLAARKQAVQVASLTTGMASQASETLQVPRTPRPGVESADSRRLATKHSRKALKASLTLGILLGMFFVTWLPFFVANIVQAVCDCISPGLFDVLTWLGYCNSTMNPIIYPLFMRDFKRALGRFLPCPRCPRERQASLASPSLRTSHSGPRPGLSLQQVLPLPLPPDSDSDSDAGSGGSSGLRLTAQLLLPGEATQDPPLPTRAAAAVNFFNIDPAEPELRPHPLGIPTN

[22] = target: Sodium-dependent serotonin transporter (Homo sapiens) (UniProt P31645); assay: 5-HT transporter (h) CEREP screen; settings: Compound concentration 10.0 uM
[23] = target: Thyroid hormone receptor alpha (Homo sapiens) (UniProt P10827); assay: TRalpha Indigo Bioscience nuclear receptor screen; settings: Compound concentration 0.3 uM
[24] = target: Thyroid hormone receptor beta (Homo sapiens) (UniProt P10828); assay: TRbeta Indigo Bioscience nuclear receptor screen; settings: Compound concentration 0.3 uM
Sequence of Thyroid hormone receptor beta (Homo sapiens) (P10828 whole entry): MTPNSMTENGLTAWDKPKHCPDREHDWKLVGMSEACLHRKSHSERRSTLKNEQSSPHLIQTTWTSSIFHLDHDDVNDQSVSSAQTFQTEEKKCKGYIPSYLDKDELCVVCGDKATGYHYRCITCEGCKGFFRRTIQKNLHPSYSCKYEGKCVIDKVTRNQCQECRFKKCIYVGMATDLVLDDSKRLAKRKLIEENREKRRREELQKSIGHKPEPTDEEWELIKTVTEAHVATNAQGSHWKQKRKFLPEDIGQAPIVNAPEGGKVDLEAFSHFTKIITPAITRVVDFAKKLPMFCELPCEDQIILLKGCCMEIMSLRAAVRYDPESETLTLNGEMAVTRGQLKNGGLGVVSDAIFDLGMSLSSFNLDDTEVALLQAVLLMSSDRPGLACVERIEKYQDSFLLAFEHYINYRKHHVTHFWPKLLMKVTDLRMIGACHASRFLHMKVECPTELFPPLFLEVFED

[25] = target: Vitamin D3 receptor (Homo sapiens) (UniProt P11473); assay: VDR Indigo Bioscience nuclear receptor screen
Sequence of Vitamin D3 receptor (Homo sapiens) (P11473 whole entry): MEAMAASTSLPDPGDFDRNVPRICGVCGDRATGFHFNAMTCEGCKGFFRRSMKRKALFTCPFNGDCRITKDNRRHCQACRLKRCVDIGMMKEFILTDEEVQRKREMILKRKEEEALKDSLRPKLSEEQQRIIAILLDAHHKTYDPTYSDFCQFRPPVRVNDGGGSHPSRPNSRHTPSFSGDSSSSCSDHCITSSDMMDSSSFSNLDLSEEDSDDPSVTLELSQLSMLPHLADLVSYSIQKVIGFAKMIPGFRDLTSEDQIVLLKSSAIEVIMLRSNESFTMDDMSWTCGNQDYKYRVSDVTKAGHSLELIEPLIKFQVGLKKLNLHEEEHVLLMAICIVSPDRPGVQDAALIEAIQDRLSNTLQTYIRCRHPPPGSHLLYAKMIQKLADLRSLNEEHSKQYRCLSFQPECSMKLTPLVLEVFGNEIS

[26] = target: 5-hydroxytryptamine receptor 2B (Homo sapiens) (UniProt P41595); settings: Compound concentration 10.0 uM
[27] = target: 5-hydroxytryptamine receptor 5A (Homo sapiens) (UniProt P47898); settings: Compound concentration 10.0 uM
[28] = target: D(1A) dopamine receptor (Homo sapiens) (UniProt P21728); settings: Compound concentration 10.0 uM
[29] = target: Mu-type opioid receptor (Homo sapiens) (UniProt P35372); settings: Compound concentration 10.0 uM
Sequence of Mu-type opioid receptor (Homo sapiens) (P35372 whole entry): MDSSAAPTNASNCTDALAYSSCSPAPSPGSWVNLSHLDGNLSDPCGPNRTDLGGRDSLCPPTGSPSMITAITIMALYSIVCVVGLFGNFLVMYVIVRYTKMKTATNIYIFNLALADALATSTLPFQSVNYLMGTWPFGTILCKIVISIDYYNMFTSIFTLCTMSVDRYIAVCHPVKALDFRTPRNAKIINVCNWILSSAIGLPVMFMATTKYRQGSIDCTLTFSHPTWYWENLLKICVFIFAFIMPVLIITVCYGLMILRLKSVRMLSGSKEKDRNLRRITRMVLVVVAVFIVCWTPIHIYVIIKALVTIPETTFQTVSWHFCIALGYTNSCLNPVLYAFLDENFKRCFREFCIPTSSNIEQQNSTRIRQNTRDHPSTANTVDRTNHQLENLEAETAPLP

[30] = target: Kappa-type opioid receptor (Homo sapiens) (UniProt P41145); settings: Compound concentration 10.0 uM
[31] = target: Muscarinic acetylcholine receptor M3 (Homo sapiens) (UniProt P20309); settings: Compound concentration 10.0 uM
Sequence of Muscarinic acetylcholine receptor M3 (Homo sapiens) (P20309 whole entry, looked up): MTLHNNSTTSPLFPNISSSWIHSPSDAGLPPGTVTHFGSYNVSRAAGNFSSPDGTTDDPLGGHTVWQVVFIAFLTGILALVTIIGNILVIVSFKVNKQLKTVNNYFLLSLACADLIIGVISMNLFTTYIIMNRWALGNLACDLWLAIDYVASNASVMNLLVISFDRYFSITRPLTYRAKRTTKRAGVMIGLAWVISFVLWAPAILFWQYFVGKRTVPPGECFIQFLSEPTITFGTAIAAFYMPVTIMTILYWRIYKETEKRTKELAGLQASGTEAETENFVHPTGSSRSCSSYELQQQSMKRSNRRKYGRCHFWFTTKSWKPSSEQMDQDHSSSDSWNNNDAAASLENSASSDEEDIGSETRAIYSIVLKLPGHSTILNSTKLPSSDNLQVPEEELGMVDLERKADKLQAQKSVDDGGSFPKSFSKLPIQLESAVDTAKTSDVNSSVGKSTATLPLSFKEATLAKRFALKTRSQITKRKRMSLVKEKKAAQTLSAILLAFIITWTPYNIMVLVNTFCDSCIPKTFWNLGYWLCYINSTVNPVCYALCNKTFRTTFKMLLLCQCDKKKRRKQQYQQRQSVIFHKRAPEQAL

[32] = target: Beta-3 adrenergic receptor (Homo sapiens) (UniProt P13945); settings: Compound concentration 10.0 uM
[33] = target: GABA-A receptor; anion channel (Rattus norvegicus) (UniProt O09028+P15431+P18506+P18508+P19969+P20236+P23574+P23576+P28471+P28473+P30191+P62813+P63079+P63138+Q91ZM7+Q9ES14); settings: Compound concentration 10.0 uM
[34] = organism: Rattus norvegicus; settings: Compound concentration 10.0 uM
[35] = target: Alpha-1D adrenergic receptor (Homo sapiens) (UniProt P25100); settings: Compound concentration 10.0 uM
[36] = target: Sigma non-opioid intracellular receptor 1 (Homo sapiens, UniProt Q99720); settings: Compound concentration 10.0 uM
[37] = target: Nuclear receptor ROR-gamma (Homo sapiens) (UniProt P51449)
Sequence of Nuclear receptor ROR-gamma (Homo sapiens) (P51449 whole entry): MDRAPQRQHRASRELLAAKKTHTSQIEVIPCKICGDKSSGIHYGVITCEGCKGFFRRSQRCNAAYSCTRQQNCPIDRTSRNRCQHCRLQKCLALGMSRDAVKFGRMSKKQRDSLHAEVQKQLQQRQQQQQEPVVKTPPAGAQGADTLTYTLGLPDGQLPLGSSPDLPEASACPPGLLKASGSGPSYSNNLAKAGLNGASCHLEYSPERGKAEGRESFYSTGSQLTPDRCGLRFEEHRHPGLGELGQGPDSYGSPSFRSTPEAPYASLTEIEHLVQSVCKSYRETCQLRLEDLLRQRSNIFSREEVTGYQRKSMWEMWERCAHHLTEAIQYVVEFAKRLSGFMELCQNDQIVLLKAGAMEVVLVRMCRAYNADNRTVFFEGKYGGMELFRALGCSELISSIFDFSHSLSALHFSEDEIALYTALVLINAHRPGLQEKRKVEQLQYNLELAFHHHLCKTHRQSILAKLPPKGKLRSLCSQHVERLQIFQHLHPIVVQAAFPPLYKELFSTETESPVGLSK

COc1nc2ccc([C@@](O)(c3ccccc3)C3CCN(C(C)=O)CC3)cc2c(Cl)c1Cc1ccc(-n2cccn2)cc1 [JNJ-54119936]
Ki [1]: 9.22 µM
qKD [2]: > 75 µM
inhibition [3]: 21%
inhibition [4]: 0%
inhibition [5]: 7%
inhibition [6]: 6%
inhibition [7]: 4%
inhibition [8]: 6%
inhibition [9]: 6%
inhibition [10]: 2%
inhibition [11]: 14%
inhibition [12]: 3%
inhibition [13]: 4%
inhibition [14]: 31%
IC50 [15]: 6.4 µM
inhibition [16]: 31.2%
inhibition ([17]; Compound concentration 1.0 uM): 45%
inhibition ([17]; Compound concentration 10.0 uM): 25%
inhibition ([18]; Compound concentration 1.0 uM): 12%
inhibition ([18]; Compound concentration 10.0 uM): 21%
inhibition [19]: 12%
inhibition [20]: 18%
inhibition ([21]; Compound concentration 1.0 uM): 20%
inhibition ([21]; Compound concentration 10.0 uM): 22%
inhibition [22]: 13%
inhibition [23]: -5.63%
inhibition [24]: 1.13%
inhibition ([25]; Compound concentration 0.3 uM): -6.97%
inhibition ([25]; Compound concentration 1.0 uM): -0.284%
inhibition [26]: 18.7%
inhibition [27]: -0.46%
inhibition [28]: 19.9%
inhibition [29]: 25.6%
inhibition [30]: -6%
inhibition [31]: 0.49%
inhibition [32]: 39.4%
inhibition [33]: 10.3%
inhibition [34]: 35.6%
inhibition [35]: 6.64%
inhibition [36]: 102%
qKD [37]: 5.3 nM
